In PubChem BioAssay AID256 (DTP/NCI, 2004):
Several values for one entry are separate records, joined by “and”; a condition that tells them apart may be missing. Equal entries are not always repeated. Toxic doses and inconclusive results are not listed. Rule for the calls: active = survival T/C of 150% or more; inactive = T/C below 125% in these data. Non-standard residues stand in square brackets, D forms with d. Residues, ends and D or L forms follow the SMILES beside them. ξ: configuration not given here. ξF = NC(Cc1ccccc1)C(=O)O; Ac5c = NC1(C(=O)O)CCCC1

Test system: CD2F1 mice, L1210 leukemia ip, survival T/C
Experiment: NCI In Vivo Anticancer Drug Screen. Data for tumor model L1210 Leukemia (intraperitoneal) in CD2F1 (CDF1) mice
Settings: higher = longer survival
How it was run: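 Implant tumor; dose compound or vehicle; measure endpoint in both groups; report treated divided by control.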

[1] = endpoint: mean survival time, dose: 100.0 mg/kg/injection, schedule: Q01DX009 (ip), vehicle: saline with Tween-80
[2] = endpoint: mean survival time, dose: 100.0 mg/kg/injection, schedule: Q04DX002 (ip), vehicle: saline with Tween-80
[3] = endpoint: mean survival time, dose: 200.0 mg/kg/injection, schedule: Q01DX009 (ip), vehicle: saline with Tween-80
[4] = endpoint: mean survival time, dose: 200.0 mg/kg/injection, schedule: Q04DX002 (ip), vehicle: saline with Tween-80
[5] = endpoint: mean survival time, dose: 50.0 mg/kg/injection, schedule: Q04DX002 (ip), vehicle: saline with Tween-80
[6] = endpoint: mean survival time, dose: 100.0 mg/kg/injection, schedule: Q01DX001 (ip), vehicle: Klucel (hydroxypropylcellulose) (HPC)
[7] = endpoint: mean survival time, dose: 200.0 mg/kg/injection, schedule: Q01DX001 (ip), vehicle: Klucel (hydroxypropylcellulose) (HPC)
[8] = endpoint: mean survival time, dose: 100.0 mg/kg/injection, schedule: Q01DX001 (ip), vehicle: saline
[9] = endpoint: mean survival time, dose: 200.0 mg/kg/injection, schedule: Q01DX001 (ip), vehicle: saline
[10] = endpoint: mean survival time, dose: 400.0 mg/kg/injection, schedule: Q01DX001 (ip), vehicle: saline

Measured: T/C

C1C[N-]CC[N-]1.[Cl][Pt+2][Cl]
inactive: endpoint: mean survival time, dose: 7.8 mg/kg/injection, schedule: Q04DX003 (ip), vehicle: saline with Tween-80 97 % of control | endpoint: mean survival time, dose: 62.5 mg/kg/injection, schedule: Q04DX003 (ip), vehicle: saline with Tween-80 90 % of control | endpoint: mean survival time, dose: 125.0 mg/kg/injection, schedule: Q04DX003 (ip), vehicle: saline with Tween-80 94 % of control

CC[CH2][Sn]([CH2]CC)([CH2]CCC#N)[O]C(C)=O
inactive: endpoint: mean survival time, dose: 0.09 mg/kg/injection, schedule: Q01DX009 (ip), vehicle: saline 97 % of control | endpoint: mean survival time, dose: 0.19 mg/kg/injection, schedule: Q01DX009 (ip), vehicle: saline 101 % of control | endpoint: mean survival time, dose: 0.39 mg/kg/injection, schedule: Q01DX009 (ip), vehicle: saline 100 % of control and 105 % of control | endpoint: mean survival time, dose: 1.56 mg/kg/injection, schedule: Q01DX009 (ip), vehicle: saline 103 % of control

CC(C)S(=O)(=O)/C=C(\I)c1ccccc1
inactive: endpoint: mean survival time, dose: 100.0 mg/kg/injection, schedule: Q04DX003 (ip), vehicle: saline 100 % of control | endpoint: mean survival time, dose: 200.0 mg/kg/injection, schedule: Q04DX003 (ip), vehicle: saline 102 % of control

CCOC(=O)c1ccc(NC(=O)N(CC)c2ccccc2)cc1
inactive: [1] 96 % of control and 100 % of control | [2] 100 % of control and 109 % of control | endpoint: mean survival time, dose: 100.0 mg/kg/injection, schedule: Q04DX003 (ip), vehicle: saline with Tween-80 94 % of control | [3] 95 % of control and 104 % of control | [4] 92 % of control and 102 % of control | endpoint: mean survival time, dose: 200.0 mg/kg/injection, schedule: Q04DX003 (ip), vehicle: saline with Tween-80 94 % of control | endpoint: mean survival time, dose: 400.0 mg/kg/injection, schedule: Q01DX009 (ip), vehicle: saline with Tween-80 96 % of control and 100 % of control | endpoint: mean survival time, dose: 400.0 mg/kg/injection, schedule: Q04DX002 (ip), vehicle: saline with Tween-80 94 % of control and 98 % of control | endpoint: mean survival time, dose: 400.0 mg/kg/injection, schedule: Q04DX003 (ip), vehicle: saline with Tween-80 95 % of control

Cc1nc(N)nc2c1CCC(=O)N2C
inactive: [5] 97 % of control | [6] 102 % of control | [2] 97 % of control | [7] 90 % of control | [4] 97 % of control

NC(Cc1ccccc1)C(=O)NC1(C(=O)O)CCCC1 (centres undefined) (H-[ξF]-[Ac5c]-OH)
inactive: endpoint: mean survival time, dose: 50.0 mg/kg/injection, schedule: Q01DX009 (ip), vehicle: saline 100 % of control | endpoint: mean survival time, dose: 100.0 mg/kg/injection, schedule: Q01DX009 (ip), vehicle: saline 107 % of control | endpoint: mean survival time, dose: 200.0 mg/kg/injection, schedule: Q01DX009 (ip), vehicle: saline 107 % of control

COc1ccc(/C=C2\OC(=O)C(Cc3cc(Cl)c4c(c3)OCO4)C2(O)C(C)C)cc1 (centres undefined)
inactive: endpoint: median survival time, dose: 6.13 mg/kg/injection, schedule: Q01DX005 (ip), vehicle: Klucel (hydroxypropylcellulose) (HPC) 95 % of control | endpoint: median survival time, dose: 12.25 mg/kg/injection, schedule: Q01DX005 (ip), vehicle: Klucel (hydroxypropylcellulose) (HPC) 96 % of control | endpoint: median survival time, dose: 24.5 mg/kg/injection, schedule: Q01DX005 (ip), vehicle: Klucel (hydroxypropylcellulose) (HPC) 103 % of control | endpoint: median survival time, dose: 49.0 mg/kg/injection, schedule: Q01DX005 (ip), vehicle: Klucel (hydroxypropylcellulose) (HPC) 91 % of control

CNC(=O)ON=C(c1ccccc1)c1ccccc1
inactive: [8] 98 % of control | [9] 104 % of control | [10] 102 % of control

NC(=O)c1csc(C2OC(CO)C(O)C2O)[n+]1[O-] (centres undefined)
inactive: endpoint: median survival time, dose: 9.38 mg/kg/injection, schedule: Q01DX005 (ip), vehicle: saline 102 % of control | endpoint: median survival time, dose: 18.75 mg/kg/injection, schedule: Q01DX005 (ip), vehicle: saline 101 % of control | endpoint: median survival time, dose: 37.5 mg/kg/injection, schedule: Q01DX005 (ip), vehicle: saline 103 % of control | endpoint: median survival time, dose: 75.0 mg/kg/injection, schedule: Q01DX005 (ip), vehicle: saline 104 % of control | endpoint: median survival time, dose: 150.0 mg/kg/injection, schedule: Q01DX005 (ip), vehicle: saline 104 % of control

Nc1ccc(N(c2ccccc2)c2ccccc2)cc1
inactive: endpoint: mean survival time, dose: 100.0 mg/kg/injection, schedule: Q04DX002 (ip), vehicle: Klucel (hydroxypropylcellulose) (HPC) 97 % of control | endpoint: mean survival time, dose: 200.0 mg/kg/injection, schedule: Q04DX002 (ip), vehicle: Klucel (hydroxypropylcellulose) (HPC) 86 % of control | endpoint: mean survival time, dose: 400.0 mg/kg/injection, schedule: Q04DX002 (ip), vehicle: Klucel (hydroxypropylcellulose) (HPC) 89 % of control

CC(=O)CC(=O)Nc1nccs1
inactive: endpoint: mean survival time, dose: 25.0 mg/kg/injection, schedule: Q04DX002 (ip), vehicle: saline with Tween-80 110 % of control | [5] 107 % of control | [2] 93 % of control

CCCCS(=O)(=O)C(c1ccccc1)c1ccccc1
inactive: [6] 90 % of control | [7] 96 % of control | endpoint: mean survival time, dose: 400.0 mg/kg/injection, schedule: Q01DX001 (ip), vehicle: Klucel (hydroxypropylcellulose) (HPC) 90 % of control

Cc1cc2[nH]c(=O)[nH]c2cc1C
inactive: endpoint: mean survival time, dose: 50.0 mg/kg/injection, schedule: Q01DX009 (ip), vehicle: saline with Tween-80 103 % of control | [1] 94 % of control | [3] 102 % of control

C=CC=O
inactive: endpoint: mean survival time, dose: 1.87 mg/kg/injection, schedule: Q01DX009 (ip), vehicle: saline 92 % of control

Cc1cc(O)c(C(C)C)cc1N(C)C (tested in a mixture with another compound)
inactive: endpoint: mean survival time, dose: 0.13 mg/kg/injection, schedule: Q01DX009 (ip), vehicle: saline 100 % of control | endpoint: mean survival time, dose: 0.25 mg/kg/injection, schedule: Q01DX009 (ip), vehicle: saline 106 % of control | endpoint: mean survival time, dose: 0.25 mg/kg/injection, schedule: Q04DX003 (ip), vehicle: saline 110 % of control | endpoint: mean survival time, dose: 0.5 mg/kg/injection, schedule: Q01DX001 (ip), vehicle: saline 97 % of control | endpoint: mean survival time, dose: 0.5 mg/kg/injection, schedule: Q01DX009 (ip), vehicle: saline 93 % of control | endpoint: mean survival time, dose: 0.5 mg/kg/injection, schedule: Q04DX003 (ip), vehicle: saline 87 % of control | endpoint: mean survival time, dose: 1.0 mg/kg/injection, schedule: Q01DX001 (ip), vehicle: saline 97 % of control

CCCCCCCCCCCCCCCCCCNC(=O)Nc1ccc(C)cc1C
inactive: endpoint: mean survival time, dose: 100.0 mg/kg/injection, schedule: Q01DX009 (ip), vehicle: saline + alcohol 98 % of control | endpoint: mean survival time, dose: 100.0 mg/kg/injection, schedule: Q04DX003 (ip), vehicle: saline + alcohol 89 % of control | endpoint: mean survival time, dose: 200.0 mg/kg/injection, schedule: Q01DX009 (ip), vehicle: saline + alcohol 104 % of control | endpoint: mean survival time, dose: 200.0 mg/kg/injection, schedule: Q04DX003 (ip), vehicle: saline + alcohol 100 % of control | endpoint: mean survival time, dose: 400.0 mg/kg/injection, schedule: Q01DX009 (ip), vehicle: saline + alcohol 107 % of control | endpoint: mean survival time, dose: 400.0 mg/kg/injection, schedule: Q04DX003 (ip), vehicle: saline + alcohol 89 % of control

NC(=O)c1ncn(C2OC(COP(=O)(O)O)C(O)C2O)c1N (centres undefined)
inactive: endpoint: mean survival time, dose: 12.5 mg/kg/injection, schedule: Q01DX005 (ip), vehicle: water 97 % of control | endpoint: mean survival time, dose: 25.0 mg/kg/injection, schedule: Q01DX005 (ip), vehicle: water 96 % of control | endpoint: mean survival time, dose: 50.0 mg/kg/injection, schedule: Q01DX005 (ip), vehicle: water 102 % of control | [8] 102 % of control | endpoint: mean survival time, dose: 100.0 mg/kg/injection, schedule: Q01DX005 (ip), vehicle: water 94 % of control | [9] 95 % of control | endpoint: mean survival time, dose: 200.0 mg/kg/injection, schedule: Q01DX005 (ip), vehicle: water 100 % of control | [10] 101 % of control

CCC(=O)C(C)(C)c1ccccc1 (tested in a mixture with another compound)
inactive: endpoint: mean survival time, dose: 100.0 mg/kg/injection, schedule: Q01DX001 (ip), vehicle: saline with Tween-80 110 % of control | endpoint: mean survival time, dose: 200.0 mg/kg/injection, schedule: Q01DX001 (ip), vehicle: saline with Tween-80 98 % of control
